According to PMC11096083 (Cancer research, 2024):

Legend:
[1] = molecular target: T1, HSD3B7 (Homo sapiens, UniProt Q9H2F3); assay: recombinant HSD3B7 activity by NAD+ reduction to NADH; format: biochemical
T1 sequence (Q9H2F3 1-369): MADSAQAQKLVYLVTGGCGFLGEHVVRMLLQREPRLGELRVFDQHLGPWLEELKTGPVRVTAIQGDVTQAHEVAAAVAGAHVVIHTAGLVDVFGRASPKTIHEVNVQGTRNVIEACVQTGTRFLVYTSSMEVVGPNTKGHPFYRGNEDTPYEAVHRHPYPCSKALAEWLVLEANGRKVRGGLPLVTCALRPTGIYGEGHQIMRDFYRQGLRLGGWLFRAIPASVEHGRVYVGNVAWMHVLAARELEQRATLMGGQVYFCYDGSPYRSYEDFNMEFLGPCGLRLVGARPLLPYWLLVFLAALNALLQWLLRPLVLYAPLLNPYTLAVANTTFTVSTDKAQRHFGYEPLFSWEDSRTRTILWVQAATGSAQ

[2] = molecular target: T1, HSD3B7; assay: recombinant HSD3B7 NAD; format: biochemical

Compound | recombinant HSD3B7 activity by NAD+ reduction to NADH (fluorescence) [1] | IC50 [2]
NC(=O)c1ccc[n+]([C@@H]2O[C@H](COP(=O)([O-])OP(=O)(O)OC[C@H]3O[C@@H](n4cnc5c(N)ncnc54)[C@H](O)[C@@H]3O)[C@@H](O)[C@H]2O)c1 [NAD+] | recombinant human HSD3B7 protein, whose enzymatic activity was assessed by monitoring fluorescence induced by NAD^+ reduction to NADH | 
CC1=C(O)C(=O)C=C2C1=CC=C1[C@@]2(C)CC[C@@]2(C)[C@@H]3C[C@](C)(C(=O)O)CC[C@]3(C)CC[C@]12C [celastrol] |  | low micromolar
COc1ccc(-c2cc(=O)c3c(O)cc(O)c(-c4cc(-c5cc(=O)c6c(O)cc(O)cc6o5)ccc4OC)c3o2)cc1 [isoginkgetin] |  | low micromolar
